# Key:
# [1] = background statement; cited from earlier work
# [2] = Complex stability at human body temperature in the dark (1H NMR in D2O, 37° C.); assay type: physicochemical; conditions: for Conversion of Ru compounds into their aqua complexes: +37° C.
# Experimental: D2O (0.80 mL) was added to each of the NMR tubes and ^1H NMR spectra were taken. The NMR tubes were put into closed pressure tubes and kept in the dark at 37° C. to check the stability of the Ru—Cl and Ru—S bond. ^1H NMR spectra of each of the tubes were taken after 4 hours, 1 day, 3 days and 3 weeks. The NMR tubes were kept in an ice bath during transport in order to temporarily freeze the reaction. In the case of [Ru(terpy)(bpy)(Cl)](Cl), an equilibrium had been reached after four hours, characterized by 10% of [Ru(terpy)(bpy)(Cl)](Cl) and 90% of [Ru(terpy)(bpy)(H2O)](Cl)2.
# The stability of the Ru—S bond was measured at human body temperature and in the dark. To do so, compound [Ru(tpy)(apy)Cl]Cl, and [Ru(tpy)(apy)(AMet)]Cl2, (compound [13](Cl)2) were dissolved in D2O and kept in the dark at 37° C. The release of the aqua species was measured by ^1H NMR after 4 hours, 1 days, and 3 weeks. […] The stability of the Ru—S bond depends on the nature of the polypyridyl ligands (see Example 2), but in general it is much higher than that of the Ru—Cl bond.
# [3] = tested on: HepG2 cancer cells; assay: WST-1 cell viability test in the dark; assay type: cell-based; conditions: 1.7 mM, 30 min in the dark, WST-1 normalized to protein content
# Experimental: HepG2 cancer cells were grown in RPMI 1640 medium containing (−) L-glutamine at 37° C. and in an atmosphere of […] and 5% CO2. […] In this experiment, the difference in water solubility between the chlorido and thioether complexes might also play a role, as uptake might be different for both compounds.
# [4] = Light-induced cleavage of the Ru-S bond in aqueous solution; assay type: physicochemical
# [5] = 37° C., equilibrium after four hours
compound,measurement,setting,value
[Cl-].[Cl-].[Cl-].[Ru+3].c1ccc(-c2cccc(-c3ccccn3)n2)nc1 [mer-[Ru(terpy)(Cl)3]],solubility in water,[1],poorly soluble in water
[Cl-].[Cl-].[Ru+2].c1ccc(N=Nc2ccccn2)cc1.c1ccc(N=Nc2ccccn2)cc1 [α-[Ru(azpy)2(Cl)2]],solubility in water,[1],poorly soluble in water
[Ru(terpy)(apy)(Cl)](Cl) [[Ru(tpy)(apy)(Cl)](Cl)],Conversion of Ru compounds into their aqua complexes,[2]; 3 weeks,48%
same,Conversion of Ru compounds into their aqua complexes,[2]; 4 h,48%
same,Conversion of Ru compounds into their aqua complexes,[2]; 1 day,48%
[Ru(terpy)(bpy)(Cl)](Cl),cell survival reduced by,[3],49%
same,aqua complex [Ru(terpy)(bpy)(H2O)](Cl)2 at equilibrium,[2]; [5],90%
same,starting chlorido complex at equilibrium,[2]; [5],10%
[Ru(terpy)(bpy)(D-biotin)](Cl)2 [Compound [7](Cl)2],cell survival reduced by,[3],not reduced
[Ru(terpy)(bpy)(mte)](BF4)2 [Compound [9](BF4)2],photosubstitution of the monodentate sulfur ligand,"[4]; white light, aqueous solution",photosubstituted by an aqua ligand
[Ru(tpy)(apy)(AMet)]Cl2 [Compound [13](Cl)2],photochemical cleavage of the Ru-S bond,"[4]; visible light, D2O, 1H NMR and thin layer chromatography",photochemically labile
same,Conversion of Ru compounds into their aqua complexes,[2]; 3 weeks,46%
same,Conversion of Ru compounds into their aqua complexes,[2]; 4 h,no sign of cleavage
same,Conversion of Ru compounds into their aqua complexes,"[2]; 4 h, listed as [Ru(tpy)(apy)(AMet)](Cl)2",0%
same,Conversion of Ru compounds into their aqua complexes,[2]; 1 day,21%

# — US9255118B2, “Light induced drug release” (UNIVERSITEIT LEIDEN, priority 2010, dated 2016)
